According to US8053553B2, “Targeting host proteinases as a therapeutic strategy against viral and bacterial pathogens” (Socpra Sciences Sante Et Humaines, priority 2007, dated 2011):
Like-named read-outs stand apart in the source and are kept apart here. Non-standard residues stand in square brackets, D forms with d. Residues, ends and D or L forms follow the SMILES beside them. No end group written: not given here. βAla = NCCC(=O)O; Sar = CNCC(=O)O

Tests used:
[1] = biological target: PACE4; assay: Ki, μM | PACE4
[2] = biological target: PC4; assay: Ki, μM | PC4
[3] = biological target: PC5/6; assay: Ki, μM | PC5/6
[4] = biological target: PC7; assay: Ki, μM | PC7
[5] = test system: B. anthracis Sterne spores; design: species or system A/J mice; conditions: mouse, in vivo
[6] = test system: Pseudomonas exotoxin A (PEx); assay: Lethal action of Pseudomonas exotoxin A in mice; format: in vivo, C57/BL6 mice
Method: A similar set of experiments was carried out with an unrelated toxin, Pseudomonas exotoxin A. Consistent with the earlier data (Chiron, M. F., et al. 1997), Pseudomonas exotoxin A (PEx) was resistant to PC cleavage at pH 7.5 but following unfolding at pH 5.5 PEx (66 kDa) was readily processed by furin, PC4 and PC5/6 to produce the 28 kDa N-terminal fragment and the toxic 37 kDa Cterminal fragment (FIG. 3A). C57/BL6 mice (5 mice/group) received one intramuscular injection of PEx (500 ng/animal; 2xLD50; Fogle, M. R., et al. 2002) and one injection of the […] (SEQ ID NO:212) peptide (12.5 mg/kg i.p.) either 24 h prior to toxin injection or simultaneously with toxin. Another group of mice, after receiving one injection of the peptide 24 h prior to toxin injection, continued to receive daily injections of the peptide for the remainder of the experiment.
C57/BL6 mice (5 mice/group) received one intramuscular injection of PEx (500 ng/animal; 2xLD50; Fogle, M. R., et al. 2002). Mice received one injection of the […] (SEQ ID NO:212) peptide (12.5 mg/kg i.p.) either 24 h prior to toxin injection or simultaneously with toxin. Additional group of mice after receiving one injection of the peptide 24 h prior to toxin injection continued to receive daily injections of the peptide for the remainder of the experiment (FIG. 3B).

[7] = test system: RAW 264.7 cells
[8] = biological target: T1, furin (Homo sapiens, UniProt P09958); assay: biochemical
T1 construct: made in house; host or cells: Drosophila S2 cells (Invitrogen expression system)

[9] = furin, Pyr-RTKR-AMC substrate, alanine scanning mutagenesis of the H5 furin cleavage sequence (Table 2), read-out: Ki
[10] = furin, Pyr-RTKR-AMC substrate, optimization of the inhibitory peptides (Table 3), read-out: Ki

T1 sequence (P09958 108-794 limits assumed): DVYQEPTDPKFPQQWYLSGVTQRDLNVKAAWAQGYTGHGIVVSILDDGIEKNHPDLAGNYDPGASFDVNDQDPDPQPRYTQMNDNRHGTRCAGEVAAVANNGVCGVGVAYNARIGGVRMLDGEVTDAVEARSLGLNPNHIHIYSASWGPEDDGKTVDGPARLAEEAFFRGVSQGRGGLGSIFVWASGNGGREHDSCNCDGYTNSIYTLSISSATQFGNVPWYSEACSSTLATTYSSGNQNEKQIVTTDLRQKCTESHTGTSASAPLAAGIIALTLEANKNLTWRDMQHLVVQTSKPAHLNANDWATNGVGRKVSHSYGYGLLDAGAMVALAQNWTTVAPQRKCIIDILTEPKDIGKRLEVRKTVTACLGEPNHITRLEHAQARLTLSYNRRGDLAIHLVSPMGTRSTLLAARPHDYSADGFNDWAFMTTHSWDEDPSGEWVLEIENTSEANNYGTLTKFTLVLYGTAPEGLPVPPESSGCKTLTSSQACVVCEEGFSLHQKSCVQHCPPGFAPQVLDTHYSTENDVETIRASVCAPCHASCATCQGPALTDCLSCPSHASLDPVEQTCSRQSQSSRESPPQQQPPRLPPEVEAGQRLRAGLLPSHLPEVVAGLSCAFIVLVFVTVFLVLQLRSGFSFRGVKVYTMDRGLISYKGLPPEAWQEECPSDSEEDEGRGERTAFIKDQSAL

Compound: TPQRARRRKKRY
- Ki [1]: 1.02 µM
- Ki [2]: 0.624 µM
- Ki [3]: 0.649 µM
- Ki [4]: 1.22 µM

Compound: TPQRARRRKKRT
- Ki [2]: 0.515 µM
- Ki [3]: 0.188 µM
- Ki [4]: 0.206 µM

Compound: TPRARRRKKRI
- Ki [1]: 0.026 µM
- Ki [2]: 0.562 µM
- Ki [3]: 0.492 µM
- Ki [4]: 0.135 µM

Compound: TPQRARRRKKRW
- Ki [1]: 0.192 µM
- Ki [2]: 0.952 µM
- Ki [3]: 0.433 µM
- Ki [4]: 0.172 µM

Compound: TPQRARRRKKRF
- Ki [1]: 0.602 µM
- Ki [2]: 0.772 µM
- Ki [3]: 0.806 µM
- Ki [4]: 1.13 µM

Compound: C[C@H](NC(=O)[C@H](CCCNC(=N)N)NC(=O)[C@@H]1CCCN1C(=O)[C@@H](N)[C@@H](C)O)C(=O)N[C@@H](CCCNC(=N)N)C(=O)N[C@@H](CCCNC(=N)N)C(=O)N[C@@H](CCCNC(=N)N)C(=O)N[C@@H](CCCCN)C(=O)N[C@@H](CCCCN)C(=O)N[C@@H](CCCNC(=N)N)C(=O)N[C@H](C(N)=O)[C@@H](C)O (H-TPRARRRKKRT-NH2) [listing 1 of 2 here]
- infected mice protected from disease [5]: 40%
- survival ([6]; C57/BL6 mice, PEx 500 ng/animal (2xLD50), peptide 12.5 mg/kg i.p. 24 h prior to toxin then daily injections): 60%
- protection of mice from the toxic effect of PEx ([6]; peptide 12.5 mg/kg i.p. (FIG. 3)): protects mice from the toxic effect of Pseudomonas PEx
- protection from LF-induced cytotoxicity [7]: protected cells from LF-induced cytotoxicity

Compound: C[C@@H](O)[C@H](N)C(=O)N1CCC[C@H]1C(=O)N[C@@H](CCC(N)=O)C(=O)N[C@@H](CCCNC(=N)N)C(=O)N[C@@H](CCCNC(N)=O)C(=O)N[C@@H](CCCNC(=N)N)C(=O)N[C@@H](CCCNC(=N)N)C(=O)N[C@@H](CCCNC(=N)N)C(=O)N[C@@H](CCCCN)C(=O)N[C@@H](CCCCN)C(=O)N[C@@H](CCCNC(=N)N)C(=O)NCC(N)=O [TPQR4RRRKKRG]
- Ki [8]: > 100 nM

Compound: O=C(O)c1cn(C2CC2)c2cc(N3CCNCC3)c(F)cc2c1=O [Cipro, reference compound]
- infected mice protected from disease [5]: 40%
- protection of A/J mice from anthrax [5]: protect A/J mice from anthrax

Compound: CC(C)[C@H](NC(=O)[C@H](CCCNC(=N)N)NC(=O)[C@H](CCCCN)NC(=O)[C@H](CCCCN)NC(=O)[C@H](CCCNC(=N)N)NC(=O)[C@H](CCCNC(=N)N)NC(=O)[C@H](CCCNC(=N)N)NC(=O)[C@H](CCC(=O)O)NC(=O)[C@H](C)NC(=O)[C@H](C)NC(=O)[C@@H](N)[C@@H](C)O)C(N)=O (H-TAAERRRKKRV-NH2)
- Ki [8, 9]: > 100 nM

Compound: CC(C)[C@H](NC(=O)[C@H](C)NC(=O)[C@H](C)NC(=O)[C@H](CCCCN)NC(=O)[C@H](CCCNC(=N)N)NC(=O)[C@H](CCCNC(=N)N)NC(=O)[C@H](CCCNC(=N)N)NC(=O)[C@H](CCC(=O)O)NC(=O)[C@H](CCCNC(=N)N)NC(=O)[C@@H]1CCCN1C(=O)[C@@H](N)[C@@H](C)O)C(N)=O (H-TPRERRRKAAV-NH2)
- Ki [8, 9]: > 100 nM

Compound: C[C@H](NC(=O)[C@H](CCCNC(=N)N)NC(=O)[C@@H]1CCCN1C(=O)[C@@H](N)[C@@H](C)O)C(=O)N[C@@H](CCCNC(=N)N)C(=O)N[C@@H](CCCNC(=N)N)C(=O)N[C@@H](CCCNC(=N)N)C(=O)N[C@@H](CCCCN)C(=O)N[C@@H](CCCCN)C(=O)N[C@@H](CCCNC(=N)N)C(=O)N[C@H](C(N)=O)[C@@H](C)O (H-TPRARRRKKRT-NH2) [listing 2 of 2 here]
- Ki [1]: 0.162 µM
- Ki [2]: 0.441 µM
- Ki [3]: 0.232 µM
- Ki [4]: 0.152 µM

Compound: β-Ala-TPRARRRKKRT-amide ([βAla]TPRARRRKKRT-NH2; N-terminus assumed; SMILES C[C@H](NC(=O)[C@H](CCCNC(=N)N)NC(=O)[C@@H]1CCCN1C(=O)[C@@H](NC(=O)CCN)[C@@H](C)O)C(=O)N[C@@H](CCCNC(=N)N)C(=O)N[C@@H](CCCNC(=N)N)C(=O)N[C@@H](CCCNC(=N)N)C(=O)N[C@@H](CCCCN)C(=O)N[C@@H](CCCCN)C(=O)N[C@@H](CCCNC(=N)N)C(=O)N[C@H](C(N)=O)[C@@H](C)O)
- protection of A/J mice from anthrax [5]: protect A/J mice from anthrax

Compound: C[C@H](NC(=O)[C@H](C)NC(=O)[C@@H]1CCCN1C(=O)[C@@H](N)[C@@H](C)O)C(=O)N[C@@H](C)C(=O)N[C@@H](CCCNC(=N)N)C(=O)N[C@@H](CCCNC(=N)N)C(=O)N[C@@H](CCCCN)C(=O)N[C@@H](CCCCN)C(=O)N[C@@H](CCCNC(=N)N)C(=O)NCC(N)=O (H-TPAAARRKKRG-NH2)
- Ki [8, 9]: > 100 nM

Compound: CC(C)[C@H](NC(=O)[C@H](CCCNC(=N)N)NC(=O)[C@H](CCCCN)NC(=O)[C@H](CCCCN)NC(=O)[C@H](CCCNC(=N)N)NC(=O)[C@H](CCCNC(=N)N)NC(=O)[C@H](CCCNC(=N)N)NC(=O)[C@H](CCC(=O)O)NC(=O)[C@H](CCCNC(=N)N)NC(=O)[C@@H]1CCCN1C(=O)[C@H](C)N)C(N)=O (H-APRERRRKKRV-NH2)
- Ki [8, 9]: > 100 nM

Compound: C[C@@H](O)[C@H](N)C(=O)N1CCC[C@H]1C(=O)N[C@@H](CCC(N)=O)C(=O)N[C@@H](CCCNC(=N)N)C(=O)N[C@H](CCC(=O)O)C(=O)N[C@@H](CCCNC(=N)N)C(=O)N[C@@H](CCCNC(=N)N)C(=O)N[C@@H](CCCNC(=N)N)C(=O)N[C@@H](CCCCN)C(=O)N[C@@H](CCCCN)C(=O)N[C@@H](CCCNC(=N)N)C(=O)NCC(N)=O [TPQReRRRKKRG]
- Ki [8, 10]: > 100 nM

Compound: C[C@H](NC(=O)[C@H](CCCCN)NC(=O)[C@H](CCCNC(=N)N)NC(=O)[C@H](CCCNC(=N)N)NC(=O)[C@H](CCCNC(=N)N)NC(=O)[C@H](CCC(=O)O)NC(=O)[C@H](CCCNC(=N)N)NC(=O)[C@@H]1CCCN1C(=O)[C@@H](N)[C@@H](C)O)C(=O)N[C@@H](C)C(=O)N(C)CC(N)=O (H-TPRERRRKAA[Sar]-NH2)
- Ki [8, 9]: > 100 nM

Compound: C[C@H](N)C(=O)N[C@@H](C)C(=O)N[C@@H](CCCNC(=N)N)C(=O)N[C@@H](CCC(=O)O)C(=O)N[C@@H](CCCNC(=N)N)C(=O)N[C@@H](CCCNC(=N)N)C(=O)N[C@@H](CCCNC(=N)N)C(=O)N[C@@H](CCCCN)C(=O)N[C@@H](CCCCN)C(=O)N[C@@H](CCCNC(=N)N)C(N)=O (H-AARERRRKKR-NH2)
- Ki [8, 9]: > 100 nM

Compound: C[C@H](NC(=O)[C@H](CCCCN)NC(=O)[C@H](CCCNC(=N)N)NC(=O)[C@H](CCCNC(=N)N)NC(=O)[C@H](CCCNC(=N)N)NC(=O)[C@H](CCC(=O)O)NC(=O)[C@H](CCCNC(=N)N)NC(=O)[C@@H]1CCCN1C(=O)[C@@H](N)[C@@H](C)O)C(=O)N[C@@H](CCCNC(=N)N)C(=O)N(C)CC(N)=O (H-TPRERRRKAR[Sar]-NH2)
- Ki [8, 9]: > 100 nM

Compound: C[C@H](NC(=O)[C@H](CCCNC(=N)N)NC(=O)[C@H](CCCNC(=N)N)NC(=O)[C@H](CCC(=O)O)NC(=O)[C@H](CCCNC(=N)N)NC(=O)[C@@H]1CCCN1C(=O)[C@@H](N)[C@@H](C)O)C(=O)N[C@@H](CCCCN)C(=O)N[C@@H](CCCCN)C(=O)N[C@@H](CCCNC(=N)N)C(=O)N(C)CC(N)=O (H-TPRERRAKKR[Sar]-NH2)
- Ki [8, 9]: > 100 nM

Compound: C[C@H](NC(=O)[C@H](C)NC(=O)[C@H](CCC(=O)O)NC(=O)[C@H](CCCNC(=N)N)NC(=O)[C@@H]1CCCN1C(=O)[C@@H](N)[C@@H](C)O)C(=O)N[C@@H](C)C(=O)N[C@@H](CCCCN)C(=O)N[C@@H](CCCCN)C(=O)N[C@@H](CCCNC(=N)N)C(=O)N(C)CC(N)=O (H-TPREAAAKKR[Sar]-NH2)
- Ki [8, 9]: > 100 nM

Compound: C[C@H](NC(=O)[C@H](CCCNC(=N)N)NC(=O)[C@H](CCC(N)=O)NC(=O)[C@@H]1CCCN1C(=O)[C@@H](N)[C@@H](C)O)C(=O)N[C@@H](CCCNC(=N)N)C(=O)N[C@@H](CCCNC(=N)N)C(=O)N[C@@H](CCCNC(=N)N)C(=O)N[C@@H](CCCCN)C(=O)N[C@@H](CCCCN)C(=O)N[C@H](CCCNC(=N)N)C(=O)NCC(N)=O
- Ki [8, 10]: > 100 nM
